# Measured values: the supplement of paper PMC11208160
# Test: recombinant barcode read abundance after kanamycin selection (control-corrected) (log10(CPM+1)); higher = more efficient recombination; sequences stand for … in AGTGCAGAGAAAATCGGCCAGTTTTCTCTGCCTGCAGTCCGCATGCCGT…AGATTTATGCAGCGGACTGCCTTTCTCCCAAAGTGATAAACCGGACAGTATCATGGACCGGTTTTCCCGGTAATCCGTATTTGCAAGGTTGGTTTCACT; site = the 11-nt target
# Procedure: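 Pooled E. coli target-specificity screen for the IS621 bridge recombinase. Each library plasmid pairs an 11-nt target (CT core) with a bridge RNA whose target-binding loop (9-nt LTG + 4-nt RTG) is reprogrammed; the rest of the 177-nt WT IS621 bridge RNA scaffold is fixed. The plasmid is co-electroporated with a WT donor plasmid; recombinase is induced with 0.1 mM IPTG and recombinants are selected on kanamycin. Recombinant barcodes are sequenced, converted to CPM, averaged over two biological replicates and corrected by the unselected control CPM. Molecule = full bridge RNA written as DNA: LTG = specificity nt 1-9, RTG = reverse complement of specificity nt 8-11, in the WT scaffold.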
# 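Further: IS621 recombinase and bridge RNA in Escherichia coli cells.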
row,Sequence,recombinant barcode read abundance (log10)
1,GGAGACGCTTGGGTTCTAACCTGTTGCCT (site GGAGAGGCTAG),0.676
2,TACGTGGCTTGGGTTCTAACCTGTTGCCT (site TACGGGGCTAG),0.502
3,GGCTCTACTTGGGTTCTAACCTGTTGCGG (site GGCTAGACTCC),0.0656
4,GAAGTACCTTGGGTTCTAACCTGTTGCCT (site AAAGTACCTAG),0.881
5,GCCATCTCTTGGGTTCTAACCTGTTGCCT (site GCCGTCTCTAG),0.0992
6,AGCAATTCTTGGGTTCTAACCTGTTGCCT (site AGGAATTCTAG),0.132
7,GACGTGTCTTGGGTTCTAACCTGTTGCGT (site AGTCATACTTG),0
8,CGTGCAGCTTGGGTTCTAACCTGTTGCCT (site CGAGCAGCTAG),0.508
9,GATCGATCTTGGGTTCTAACCTGTTGCCT (site GATCGATCTAA),0.0447
10,TCTAAGTCTTGGGTTCTAACCTGTTGCCA (site TCTAAGTCTTG),0.0536
11,ATGTCCTCTTGGGTTCTAACCTGTTGCCT (site ATGCCCTCTAG),0.872
12,CCTAATACTTGGGTTCTAACCTGTTGCTT (site ACTAATCCTAA),0.107
13,CCGATTCCTTGGGTTCTAACCTGTTGCCT (site CCGAATCCTAG),0.153
14,GTTACGTCTTGGGTTCTAACCTGTTGCTT (site GTTACGTCTAA),0.285
15,ACTCCAGCTTGGGTTCTAACCTGTTGCCT (site TAGTTTACTCT),0.0793
16,GGAGCACCTTGGGTTCTAACCTGTTGCCT (site GGAGCACCTAG),2.38
17,GAAGGGCCTTGGGTTCTAACCTGTTGCCT (site GAAGAGCCTAG),0.202
18,ATCGGATCTTGGGTTCTAACCTGTTGCCT (site ATCGGACCTAG),0.0656
19,CAAGACGCTTGGGTTCTAACCTGTTGCCT (site CAAGACGCTAG),1.4
20,ACCTGGGCTTGGGTTCTAACCTGTTGCCT (site ATCTGGGCTAG),0.12
21,CGAAATGCTTGGGTTCTAACCTGTTGCCT (site CGGAATGCTAG),0.035

row,Sequence,recombinant barcode read abundance (log10)
1,CGTAAATCTTGGGTTCTAACCTGTTGCCT (site CGCAAATCTAG),0.0232
2,AAGGGGCCTTGGGTTCTAACCTGTTGCCT (site AAGGGGCCTAG),1.8
3,AAGCATGCTTGGGTTCTAACCTGTTGCTA (site AAGCATGCTTA),0.883
4,CCACGGTCTTGGGTTCTAACCTGTTGCCT (site CCACGGTCTAG),1.1
5,TGGTGTCCTTGGGTTCTAACCTGTTGCCA (site TGGTGTCCTTG),0.473
6,TAACGACCTTGGGTTCTAACCTGTTGCCT (site TAACGACCTAG),1.42
7,ACTTAGACTTGGGTTCTAACCTGTTGCCC (site ACTTAGACTGG),1.46
8,CATTTCTCTTGGGTTCTAACCTGTTGCCT (site CATTTCTCTAG),0.341
9,TCGTCTACTTGGGTTCTAACCTGTTGCTC (site ATCAACCCTTG),0.117
10,GGCCCGCCTTGGGTTCTAACCTGTTGCCT (site TGCCCGCCTAG),0.0746
11,TTCAAACCTTGGGTTCTAACCTGTTGCCT (site TTCAAAACTAG),0.0532
12,TACCAGACTTGGGTTCTAACCTGTTGCCT (site TACCAGACTAG),1.26
13,CACGCTCCTTGGGTTCTAACCTGTTGCGT (site ACTTGAGCTCT),0.119
14,AGGGGCACTTGGGTTCTAACCTGTTGCCG (site AGGGGCACTCG),1.83
15,GTTGGAACTTGGGTTCTAACCTGTTGCGT (site GTTGGAACTAC),2.05
16,TAGAACTCTTGGGTTCTAACCTGTTGCGC (site ACATTTCCTAT),0.0572
17,TGTAGTACTTGGGTTCTAACCTGTTGCCT (site TGTAGTACTAG),0.229
18,CCGTAAGCTTGGGTTCTAACCTGTTGCCT (site CCGTAAGCTAG),0.105
19,CCAGTAGCTTGGGTTCTAACCTGTTGCCT (site CCAGGAGCTAG),0.193
20,ACTTGACCTTGGGTTCTAACCTGTTGCGG (site AGTTAACCTCC),0
21,CTATGGACTTGGGTTCTAACCTGTTGCAG (site CTATGGACTCT),2.39

row,Sequence,recombinant barcode read abundance (log10)
1,TCAGGAGCTTGGGTTCTAACCTGTTGCAG (site TCAGGAGCTCT),1.57
2,GGCATGTCTTGGGTTCTAACCTGTTGCCT (site GGCTTGTCTAG),0.0534
3,TCCGACCCTTGGGTTCTAACCTGTTGCAC (site TCCGACCCTGT),2.54
4,ATACTAACTTGGGTTCTAACCTGTTGCCT (site ACACTAACTAG),0.477
5,GGGAACCCTTGGGTTCTAACCTGTTGCTG (site GGGAACCCTCA),1.5
6,TACCTGTCTTGGGTTCTAACCTGTTGCTT (site TACCTGTCTAA),1.77
7,TAGCATGCTTGGGTTCTAACCTGTTGCAG (site TAGCATGCTTT),0.017
8,GGGGCACCTTGGGTTCTAACCTGTTGCTA (site GGGGCACCTTA),2.35
9,ACGGAGACTTGGGTTCTAACCTGTTGCAT (site ACGGAGACTAT),2.78
10,CCAGTGACTTGGGTTCTAACCTGTTGCCT (site CCAGTAACTAG),0.931
11,AGTTGGGCTTGGGTTCTAACCTGTTGCTG (site AGTTGGGCTCA),1.02
12,GGGTCTTCTTGGGTTCTAACCTGTTGCAT (site GGGGCTTCTAT),0.0588
13,AGTCCTACTTGGGTTCTAACCTGTTGCAG (site AGGCTTACTCT),0.234
14,TCGCTAACTTGGGTTCTAACCTGTTGCCT (site TCGCTAACTAG),0.322
15,TGAGAGACTTGGGTTCTAACCTGTTGCGT (site TGAGAGACTAC),2.94
16,CACATATCTTGGGTTCTAACCTGTTGCAT (site CACATCTCTAG),0.123
17,TGATCCACTTGGGTTCTAACCTGTTGCCT (site CGATCCACTAG),0.0881
18,CTCTCGTCTTGGGTTCTAACCTGTTGCAT (site CTCTCGTCTAC),0.08
19,AAGCCTTCTTGGGTTCTAACCTGTTGCTG (site AAGCCTTCTCA),1.68
20,CTGAGTCCTTGGGTTCTAACCTGTTGCCA (site CTGAGTTCTTG),0.402
21,CTAGTAACTTGGGTTCTAACCTGTTGCCA (site CTAGTAACTTG),0.351

row,Sequence,recombinant barcode read abundance (log10)
1,AGGAGCCCTTGGGTTCTAACCTGTTGCTC (site AGGAGCCCTGA),0.377
2,TCCCGTACTTGGGTTCTAACCTGTTGCAT (site TCCTGTACTAT),0.159
3,TCGGACCCTTGGGTTCTAACCTGTTGCGA (site TCGGACCCTTC),2.73
4,TAACGTTCTTGGGTTCTAACCTGTTGCCT (site TACCGTTCTAG),0.0273
5,AGGGAGACTTGGGTTCTAACCTGTTGCTC (site AGGGAGACTGA),2.64
6,GCTTCCACTTGGGTTCTAACCTGTTGCCT (site TCTTCCACTAG),0.196
7,TATACCACTTGGGTTCTAACCTGTTGCCT (site TATACCACTAG),0.541
8,CAATGGTCTTGGGTTCTAACCTGTTGCTT (site CAATGGTCTAC),1.64
9,ATGGTGTCTTGGGTTCTAACCTGTTGCCT (site ATGGTGTCTAG),2.75
10,AGGAGCCCTTGGGTTCTAACCTGTTGCTT (site AGGAGCCCTGA),0.0286
11,AGGTCAACTTGGGTTCTAACCTGTTGCCG (site TAAGGTCCTAA),0.0279
12,CCGCCCTCTTGGGTTCTAACCTGTTGCCT (site CCGCCCTCTAG),1.04
13,CCGAAGACTTGGGTTCTAACCTGTTGCCT (site CCGAAGACTAG),0.112
14,ACTCTGTCTTGGGTTCTAACCTGTTGCTT (site ACCCTATCTAA),0.124
15,AGTCTCGCTTGGGTTCTAACCTGTTGCGG (site AGTGTCGCTCC),0.0171
16,CATCCGGCTTGGGTTCTAACCTGTTGCCT (site CATCCGTCTAG),0.255
17,TACCTGTCTTGGGTTCTAACCTGTTGCTT (site TACCAGTCTAA),0.139
18,GCGGTTCCTTGGGTTCTAACCTGTTGCCT (site GCGGTTCCTAG),1.96
19,CTGATGTCTTGGGTTCTAACCTGTTGCCA (site CTGCTGTCTTG),0.126
